In ChEMBL document CHEMBL1201862, “PubChem BioAssay data set” (2004):
“And” between values parts separate entries of the source, which are not always exact repeats. Equal entries are not always repeated.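 Cultured in 96-well plates, cells were exposed to test compound for 48 hours across five concentrations. Abbreviation: GI50, concentration required for 50% inhibition of growth.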 The source made the active and inactive calls. Rule as the data show it: active = GI50 up to about 1.1 µM and inactive = higher.

How the values were obtained:
Assay in all cases: inhibition of tumour cell growth, NCI panel, 48 h
786-0 = tested on: 786-0
BT-549 = tested on: BT-549
DU-145 = tested on: DU-145
HL-60 = tested on: HL-60
Hs-578T = tested on: Hs-578T
KM-20L2 = tested on: KM-20L2
M19-MEL = tested on: M19-MEL
MDA-N = tested on: MDA-N
NCI-H226 = tested on: NCI-H226
PC-3 = tested on: PC-3
SK-OV-3 = tested on: SK-OV-3
SNB-78 = tested on: SNB-78
T47D = tested on: T47D
UACC-257 = tested on: UACC-257
CAKI-1 = tested on: CAKI-1
HCT-15 = tested on: HCT-15
MOLT-4 = tested on: MOLT-4
SN12C = tested on: SN12C
NCI/ADR-RES = tested on: NCI/ADR-RES
LXFL 529 = tested on: LXFL 529

Row | Compound | GI50 (786-0) | GI50 (BT-549) | GI50 (DU-145) | GI50 (HL-60) | GI50 (Hs-578T) | GI50 (KM-20L2) | GI50 (M19-MEL) | GI50 (MDA-N) | GI50 (NCI-H226) | GI50 (PC-3) | GI50 (SK-OV-3) | GI50 (SNB-78) | GI50 (T47D) | GI50 (UACC-257) | GI50 (CAKI-1) | GI50 (HCT-15) | GI50 (MOLT-4) | GI50 (SN12C) | GI50 (NCI/ADR-RES) | GI50 (LXFL 529)
1 | OC(CBr)C(O)C(O)C(O)CBr (configuration not stated) | 13.7 µM (inactive) | 28.2 µM (inactive) | 12.7 µM (inactive) | 8.73 µM (inactive) and 13.3 µM (inactive) | > 100 µM (inactive) | > 100 µM (inactive) | > 100 µM (inactive) | > 45.9 µM (inactive) | > 100 µM (inactive) and > 74.1 µM (inactive) | > 81.1 µM (inactive) | > 55.1 µM (inactive) and > 53.1 µM (inactive) | > 100 µM (inactive) | > 100 µM (inactive) | > 69 µM (inactive) and > 64 µM (inactive) | – | – | – | – | – | –
2 | [O-][S+]1c2ccccc2N=C(c2ccc(Cl)cc2)CC1c1cccs1 (configuration not stated) | 15 µM (inactive) | – | – | 14.2 µM (inactive) | – | 20.9 µM (inactive) | 17.7 µM (inactive) | – | 90.4 µM (inactive) | – | 28.9 µM (inactive) | 35 µM (inactive) | – | 23.2 µM (inactive) | 21.4 µM (inactive) | 15.5 µM | 26 µM (inactive) | 19 µM (inactive) | – | –
3 | O=S(=O)(Nc1ccccc1)c1ccc(-c2c3nc(c(-c4ccc(S(=O)(=O)Nc5ccccc5)cc4)c4ccc([nH]4)c(-c4ccc(S(=O)(=O)Nc5ccccc5)cc4)c4nc(c(-c5ccc(S(=O)(=O)Nc6ccccc6)cc5)c5ccc2[nH]5)C=C4)C=C3)cc1 | 18.9 µM (inactive) | > 31.6 µM (inactive) | > 31.6 µM (inactive) | > 31.6 µM (inactive) | > 31.6 µM (inactive) | – | – | > 31.6 µM (inactive) | > 100 µM (inactive) | > 31.6 µM (inactive) | > 31.6 µM (inactive) | – | > 31.6 µM (inactive) | 26.4 µM (inactive) | > 31.6 µM (inactive) | > 31.6 µM | > 31.6 µM (inactive) | > 31.6 µM (inactive) | > 31.6 µM (inactive) | –
4 | CC(=O)NC1CC2Oc3ccc(C)cc3C(C)(O2)C1O (configuration not stated) | > 100 µM (inactive) | – | – | > 100 µM (inactive) | – | – | > 100 µM (inactive) | – | > 100 µM (inactive) | – | > 100 µM (inactive) | – | – | > 100 µM (inactive) | – | > 100 µM | > 100 µM (inactive) | > 100 µM (inactive) | – | –
5 | CC(C)OP(=O)(OC(C)C)c1nc(-c2ccccc2)n(-c2ccc([N+](=O)[O-])cc2)n1 | – | – | – | > 100 µM (inactive) | – | > 100 µM (inactive) | > 100 µM (inactive) | – | 31.3 µM (inactive) | – | > 100 µM (inactive) | – | – | > 100 µM (inactive) | > 100 µM (inactive) | > 100 µM | > 100 µM (inactive) | > 100 µM (inactive) | – | > 100 µM (inactive)
6 | O=c1[nH]c(C2CCCCC2)nc2ccc(Cl)cc12 | > 100 µM (inactive) | – | – | – | – | > 100 µM (inactive) | > 100 µM (inactive) | – | > 100 µM (inactive) | – | > 100 µM (inactive) | > 100 µM (inactive) | – | > 100 µM (inactive) | – | > 100 µM | > 100 µM (inactive) | > 100 µM (inactive) | – | > 100 µM (inactive)
7 | O=C(Nc1ccc(/N=N/c2ccccc2)cc1)Sc1ccccc1C(=O)O | > 100 µM (inactive) | – | – | 1.7 µM (inactive) | – | > 100 µM (inactive) | – | – | > 100 µM (inactive) | – | – | > 100 µM (inactive) | – | > 100 µM (inactive) | > 100 µM (inactive) | > 100 µM | > 100 µM (inactive) | > 100 µM (inactive) | – | > 100 µM (inactive)
8 | COc1ccc(-c2c(-c3ccccc3)c(C)nc3[nH]c(=S)[nH]c(=S)c23)cc1OC | 35.6 µM (inactive) | 42.2 µM (inactive) | 44.4 µM (inactive) | 31.8 µM (inactive) | 35.6 µM (inactive) | – | – | 30.1 µM (inactive) | 38 µM (inactive) | 25.1 µM (inactive) | 37 µM (inactive) | – | 38.3 µM (inactive) | 36.6 µM (inactive) | 47 µM (inactive) | 30.9 µM | 12 µM (inactive) | 21.6 µM (inactive) | 40.4 µM (inactive) | –
9 | O=S(OC12CC3CC(CC(C3)C1)C2)c1cc(Cl)cc(Cl)c1OCc1ccccc1 (configuration not stated) | – | – | – | > 100 µM (inactive) | – | – | > 100 µM (inactive) | – | – | – | > 100 µM (inactive) | > 100 µM (inactive) | – | > 100 µM (inactive) | – | – | > 100 µM (inactive) | > 100 µM (inactive) | – | > 100 µM (inactive)
10 | Cc1cccc(C)c1NC(=O)CCC(=O)NNC(=O)c1cc(O)c2ccccc2c1 | 38 µM (inactive) | – | – | 27.8 µM (inactive) | – | 34.4 µM (inactive) | 35.2 µM (inactive) | – | > 100 µM (inactive) | – | 97.9 µM (inactive) | – | – | 44.5 µM (inactive) | 31.8 µM (inactive) | 25.3 µM | 19.5 µM (inactive) | 78.7 µM (inactive) | – | 29.6 µM (inactive)
11 | COC(=O)NNc1c([N+](=O)[O-])cnn(-c2ccccc2)c1=O | 3.32 µM (inactive) | 1.82 µM (inactive) | 5.62 µM (inactive) | 1.39 µM (inactive) | 4.53 µM (inactive) | 3.37 µM (inactive) | 1.87 µM (inactive) | 2.85 µM (inactive) | 4.19 µM (inactive) | 1.79 µM (inactive) | 9.71 µM (inactive) | – | 2.21 µM (inactive) | 2.51 µM (inactive) | 3.98 µM (inactive) | 2.45 µM | 0.815 µM (active) | 1.99 µM (inactive) | – | 1.73 µM (inactive)
12 | COc1ccccc1CC(C)N (configuration not stated) | > 100 µM (inactive) | – | – | > 100 µM (inactive) | – | > 100 µM (inactive) | – | – | > 100 µM (inactive) | – | > 100 µM (inactive) | > 100 µM (inactive) | – | > 100 µM (inactive) | > 100 µM (inactive) | > 100 µM | – | > 100 µM (inactive) | – | > 100 µM (inactive)
13 | Cc1cccc(C)c1NC(=O)CCc1nnc2s/c(=C\c3ccc(N(C)C)cc3)c(=O)n12 | > 100 µM (inactive) | – | – | 68.1 µM (inactive) | – | > 100 µM (inactive) | – | – | > 100 µM (inactive) | – | > 100 µM (inactive) | > 100 µM (inactive) | – | > 100 µM (inactive) | > 100 µM (inactive) | > 100 µM | 53.3 µM (inactive) | > 100 µM (inactive) | – | > 100 µM (inactive)
14 | C=C(Br)C(C)(Cl)CCC(Br)C(C)(C)Cl (configuration not stated) | 20.6 µM (inactive) | > 100 µM (inactive) | > 100 µM (inactive) | 20.3 µM (inactive) | 89.7 µM (inactive) | – | – | 48 µM (inactive) | 25.6 µM (inactive) | 39.4 µM (inactive) | > 100 µM (inactive) | – | > 100 µM (inactive) | 28.9 µM (inactive) | > 100 µM (inactive) | 43 µM | 32.3 µM (inactive) | 40 µM (inactive) | 72.1 µM (inactive) | –
15 | O=C1OC(c2cccc(C(F)(F)F)c2)(c2cccc(C(F)(F)F)c2)c2ccc3ccccc3c21 | > 10 µM (inactive) | – | – | 3.56 µM (inactive) | – | 7.67 µM (inactive) | – | – | 85.5 µM (inactive) | – | > 10 µM (inactive) | > 10 µM (inactive) | – | 13.1 µM (inactive) | 26.7 µM (inactive) | 9.25 µM | 4.66 µM (inactive) | > 10 µM (inactive) | – | 8.24 µM (inactive)
16 | FC(F)(F)c1ccc2c(c1)N(CCCNCCN1CCOCC1)c1ccccc1S2 | – | – | – | 6.07 µM (inactive) | – | 4.69 µM (inactive) | 7.14 µM (inactive) | – | – | – | > 10 µM (inactive) | 11.6 µM (inactive) | – | 10.9 µM (inactive) | – | 6.52 µM | 4.74 µM (inactive) | 13.3 µM (inactive) | – | 12.7 µM (inactive)
17 | Cc1c(N(C)C)ccc2c(=O)c3cccc(CC(=O)O)c3oc12 | > 100 µM (inactive) | 65.2 µM (inactive) | > 100 µM (inactive) | 97.9 µM (inactive) | > 100 µM (inactive) | > 100 µM (inactive) | > 100 µM (inactive) | > 100 µM (inactive) | > 100 µM (inactive) | > 100 µM (inactive) | > 100 µM (inactive) | > 100 µM (inactive) | > 100 µM (inactive) | > 100 µM (inactive) | > 100 µM (inactive) | > 100 µM | > 100 µM (inactive) | > 100 µM (inactive) | > 100 µM (inactive) | –
18 | CCOC(=O)C1Nc2ccc([N+](=O)[O-])cc2[C@H]2OCC[C@@H]12 (some centres not stated) | > 100 µM (inactive) | – | – | > 100 µM (inactive) | – | > 100 µM (inactive) | > 100 µM (inactive) | – | > 100 µM (inactive) | – | > 100 µM (inactive) | > 100 µM (inactive) | – | > 100 µM (inactive) | > 100 µM (inactive) | > 100 µM | > 100 µM (inactive) | > 100 µM (inactive) | – | –
19 | O=C1/C(=c2\c3ccccc3n3c(=O)c4ccccc4nc23)Nc2ccccc21 [CANDIDINE] | 58.7 µM (inactive) | > 100 µM (inactive) | > 100 µM (inactive) | > 10 µM (inactive) | 29.9 µM (inactive) | – | – | 18.6 µM (inactive) | > 100 µM (inactive) | > 100 µM (inactive) | > 100 µM (inactive) | – | > 26.7 µM (inactive) | > 86.7 µM (inactive) | > 100 µM (inactive) | > 100 µM | > 31.6 µM (inactive) | > 100 µM (inactive) | > 100 µM (inactive) | –
20 | C/C1=C\C=C(\C(C)C)CC/C(C(=O)O)=C\CC/C(C)=C/CC1 [NEOCROTOCEMBRANEIC ACID] | 24.6 µM (inactive) | 27.5 µM (inactive) | 33.1 µM (inactive) | 24.8 µM (inactive) | 43.6 µM (inactive) | – | – | 28.8 µM (inactive) | 20.9 µM (inactive) | 18 µM (inactive) | 27.6 µM (inactive) | – | 34.4 µM (inactive) | 22.5 µM (inactive) | 31.7 µM (inactive) | 21.4 µM | 19.1 µM (inactive) | 21.2 µM (inactive) | 30.5 µM (inactive) | –
